Columns and labels:
[1] = test system: E0771-EGFRvIII orthotopic breast cancer xenografts; test: Mouse E0771-EGFRvIII orthotopic breast cancer xenografts, olaparib and CAR-T; format: in vivo, C57BL/6 mice; details: olaparib 50 mg/kg i.p. with CAR-T cells
Procedure: (1) Establishment of mouse orthotopic breast cancer model and respective treatment in groups:
E0771-EGFRvIII cells in the logarithmic growth phase and growing well are collected, inoculating 5×10^5 target cells at right side position of the third pair of accessory breasts of C57BL/6 mice (mice with normal immune system), and the inoculating day is recorded as the first day (i.e., Day 1).
On the 10th day after tumor inoculation (i.e. Day 10), mouse T cells are taken and 806-mCD28z-CAR-T cell line is constructed as described in step 1 of this example.
On the 14th day after tumor inoculation (i.e., Day 14), the volume of the tumor reaches about 150 mm^3, and the mice are divided in groups:
The formula of olaparib stock solution: olaparib is added with 4% DMSO+30% PEG300+66% ddH2O in sequence; a solution of 5 mg/mL is used as the stock solution. […]
(2) Detection of tumor volume. The tumor volume changes of mice are observed and measured continuously, and recorded three times a week. […]
(4) Detection of CAR-T copy number in tumor tissues. Tumor tissues of each group of mice are ground to extract DNA, and the sequence of retroviral vector fragment is detected by Taqman probe method to determine the DNA copy number of 806-mCD28z-CAR. […]

[2] = test system: 4T1-EGFRvIII cells; test: CCK8 proliferation assay, olaparib on 4T1-EGFRvIII breast cancer cells; format: cell-based, mouse
Excerpt: Since the EGFR287-302 epitope is only exposed in EGFRvIII or tumors overexpressing EGFR, this epitope is hidden in normal tissues (Gan H K et al., Targeting of a conformationally exposed, tumor-specific epitope of EGFR as a strategy for cancer therapy. Cancer Res. 2012, 72(12):2924-2930), conventional methods in molecular biology are used to establish E0771, 4T1 mouse breast cancer cell models (E0771-EGFRvIII, 4T1-EGFRvIII) that overexpress mouse EGFR inserted with amino acid epitope at positions 287-302 of human EGFR. Subsequent research is performed to screen EGFRvIII target-positive cells by cell flow cytometry (FIG. 2A). E0771, 4T1 cells are purchased from the American Type Culture Collection (ATCC).
As an effective inhibitor of PARP1, olaparib may inhibit PARP1 to participate in DNA damage repair process. In mouse breast cancer cell lines and mouse T cells and CART cells, different levels of PARP1 expression are detected (FIG. 2B). Therefore, CCK8 proliferation assay is required to detect the effect of olaparib on proliferation of tumor cells and CART cells.
806-m28Z CAR-T cells in Example 1 are taken to spread in a 96-well plate with 1×10^4 cells per well and 100 μl medium. Breast cancer cells E0771-EGFRvIII and 4T1-EGFRvIII are taken to spread in a 96-well plate with 1×10^4 cells per well and 100 μl medium. Different concentrations of olaparib are taken to add to the cells to make 10 concentration gradients (i.e., the treatment concentrations of olaparib are respectively 50 μM, 20 μM, 10 μM, 5 μM, 2.5 μM, 1 μM, 0.1 μM, 0.01 μM, 0.001 μM, 0 μg/ml). After 48 hours of drug treatment for cells of different groups, 10 μl of CCK8 substrate color reagent (Dojindo) is added to each well; after incubating for 1 hour at 37° C., the absorbance at 450 nm is measured by a microplate reader, calculating the cell viability respectively.
The formula for calculating the cell viability is as follows:
Cell viability (%)=[A (adding drug)−A (blank)]/[A (without adding drug)−A (blank)]

SMILES: O=C(c1cc(Cc2n[nH]c(=O)c3ccccc23)ccc1F)N1CCN(C(=O)C2CC2)CC1 [olaparib]
- toxicity of combining olaparib with CAR-T cell therapy (from body weights) [1]: do not cause significant toxicity
- inhibition rate of proliferation of 4T1-EGFRvIII cell line ([2]; 1 μM and higher concentration of olaparib, 48 hours, CCK8): 30-40%
- proliferation of 4T1-EGFRvIII cells ([2]; 1 μM olaparib): inhibited
- proliferation of 4T1-EGFRvIII cells ([2]; 504 olaparib): inhibited

Source: US20230158071A1, “TUMOR COMBINED IMMUNOTHERAPY” (CRAGE medical Co., Limited, priority 2018, published 2023)
